In patent US7956069B2, “Compounds” (AstraZeneca AB, priority 2006, dated 2011):

How the values were obtained:
cloned human M2 receptor = target: T1, cloned human M2 receptor (Homo sapiens, UniProt P08172); test: hM2 receptor GTPγS binding; type: biochemical; conditions: CHO membranes, [35S]GTPγS binding
T1 construct: purchased Perkin-Elmer RBHM2M; host or cells: Chinese hamster ovary cells (CHO)
T1 sequence (P08172 1-466): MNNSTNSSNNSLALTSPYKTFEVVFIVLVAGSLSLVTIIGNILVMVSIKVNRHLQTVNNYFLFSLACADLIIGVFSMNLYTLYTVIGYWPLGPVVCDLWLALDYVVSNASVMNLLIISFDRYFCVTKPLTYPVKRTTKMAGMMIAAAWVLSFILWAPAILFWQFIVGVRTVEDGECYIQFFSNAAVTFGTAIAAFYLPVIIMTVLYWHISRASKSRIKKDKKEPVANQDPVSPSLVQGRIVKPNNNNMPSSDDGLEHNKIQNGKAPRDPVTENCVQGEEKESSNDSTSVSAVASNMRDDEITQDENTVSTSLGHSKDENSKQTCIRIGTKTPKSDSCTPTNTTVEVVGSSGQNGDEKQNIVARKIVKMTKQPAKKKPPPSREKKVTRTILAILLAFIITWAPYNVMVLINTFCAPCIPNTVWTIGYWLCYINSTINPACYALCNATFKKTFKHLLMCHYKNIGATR
Experimental: hM2 Receptor GTPγS Binding
Membranes produced from Chinese hamster ovary cells (CHO) expressing the cloned human M2 receptor (human Muscarinic receptor subtype 2, gene bank access NM_000739), were obtained from Perkin-Elmer (RBHM2M). The membranes were thawed at 37° C., passed 3 times through a 23-gauge blunt-end needle, diluted in the GTPγS binding buffer (50 mM Hepes, 20 mM NaOH, 100 mM NaCl, 1 mM EDTA, 5 mM MgCl2, pH 7.4, 100 μM DTT). The EC50, IC50 and Emax of the compounds of the invention were evaluated from 10-point dose-response curves (three fold concentration range) done in 60 μl in 384-well non-specific binding surface plate (Corning). Ten microliters from the dose-response curves plate (5× concentration) were transferred to another 384 well plate containing the following: 10 μg of hM2 membranes, 500 μg of Flashblue beads (Perkin-Elmer) and GDP in a 25 μl volume. An additional 15 μl containing 3.3× (55000 dpm) of GTPγ^35S (0.4 nM final) were added to the wells resulting in a total well volume of 50 μl. Basal and maximal stimulated [^35S]GTPγS binding were determined in absence and presence of 30 μM of acetylcholine agonist. The membranes/beads mix were pre-incubated for 15 minutes at room temperature with 25 μM GDP prior to distribution in plates (12.5 μM final). The reversal of acetylcholine-induced stimulation (2 μM final) of [^35S]GTPγS binding was used to assay the antagonist properties (IC50) of the compounds. The plates were incubated for 60 minutes at room temperature with shaking, then centrifuged at 2000 rpm for 5 minutes. The radioactivity (cpm) were counted in a Trilux (Perkin-Elmer).
(§1) Values of EC50, IC50 and Emax were obtained using sigmoidal fits of a non-linear curve-fitting program (XLfit version 5.0.6 from ID Business Solutions Limited, Guildford, UK) of percent stimulated [^35S]GTPγS binding vs. log(molar ligand).
All EC50 and IC50 values are reported as arithmetic means ± standard error of mean of ‘n’ independent experiments. […] The IC50 was the concentration of the compound of the invention at which 50% inhibition of acetylcholine [^35S]GTPγS binding stimulation has been observed.

cloned human M4 receptor = target: T2, cloned human M4 receptor (Homo sapiens, UniProt P08173); test: hM4 receptor GTPγS binding; type: biochemical; conditions: CHO membranes, [35S]GTPγS binding
T2 construct: purchased Perkin-Elmer RBHM4M; host or cells: Chinese hamster ovary cells (CHO)
T2 sequence (P08173 1-479): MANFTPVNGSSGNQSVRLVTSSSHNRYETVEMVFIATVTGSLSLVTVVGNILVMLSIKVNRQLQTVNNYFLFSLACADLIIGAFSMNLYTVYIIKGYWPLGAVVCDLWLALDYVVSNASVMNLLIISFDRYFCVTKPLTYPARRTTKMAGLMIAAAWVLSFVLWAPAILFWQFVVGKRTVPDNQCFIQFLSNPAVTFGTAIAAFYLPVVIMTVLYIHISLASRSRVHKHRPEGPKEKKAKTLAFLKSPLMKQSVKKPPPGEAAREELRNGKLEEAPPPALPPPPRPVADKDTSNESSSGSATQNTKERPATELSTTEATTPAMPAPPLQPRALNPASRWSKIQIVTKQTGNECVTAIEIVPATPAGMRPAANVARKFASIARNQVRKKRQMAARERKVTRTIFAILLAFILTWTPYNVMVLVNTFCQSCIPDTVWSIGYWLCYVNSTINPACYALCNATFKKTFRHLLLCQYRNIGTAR
Experimental: HM4 Receptor GTPγS Binding
Membranes produced from Chinese hamster ovary cells (CHO) expressing the cloned human M4 receptor (human Muscarinic receptor subtype 4, gene bank access NM_000741), were obtained from Perkin-Elmer (RBHM4M). The membranes were thawed at 37° C., passed 3 times through a 23-gauge blunt-end needle, diluted in the GTPγS binding buffer (50 mM Hepes, 20 mM NaOH, 100 mM NaCl, 1 mM EDTA, 5 mM MgCl2, pH 7.4, 100 μM DTT). The EC50, IC50 and Emax of the compounds of the invention were evaluated from 10-point dose-response curves (three fold concentration range) done in 60 μl in 384-well non-specific binding surface plate (Corning). Ten microliters from the dose-response curves plate (5× concentration) were transferred to another 384 well plate containing the following: 10 μg of hM4 membranes, 500 μg of Flashblue beads (Perkin-Elmer) and GDP in a 25 μl volume. An additional 15 μl containing 3.3× (55000 dpm) of GTPγ^35S (0.4 nM final) were added to the wells resulting in a total well volume of 50 μl. Basal and maximal stimulated [^35S]GTPγS binding were determined in absence and presence of 30 μM of acetylcholine agonist. The membranes/beads mix were pre-incubated for 15 minutes at room temperature with 40 μM GDP prior to distribution in plates (20 μM final). The reversal of acetylcholine-induced stimulation (10 μM final) of [^35S]GTPγS binding was used to assay the antagonist properties (IC50) of the compounds. The plates were incubated for 60 minutes at room temperature with shaking, then centrifuged at 2000 rpm for 5 minutes. The radioactivity (cpm) were counted in a Trilux (Perkin-Elmer).
as §1
All EC50 and IC50 values are reported as arithmetic means±standard error of mean of ‘n’ independent experiments. […] The IC50 was the concentration of the compound of the invention at which 50% inhibition of acetylcholine [^35S]GTPγS binding stimulation has been observed.

EC50 (cloned human M2 receptor) [nM] | EC50 (cloned human M4 receptor) [nM] | Structure (SMILES)
380 | 1100 | O=C(OCCF)N1CCC(N2CCC(N3C(=O)N[C@H]4CCCC[C@@H]43)CC2)CC1
7300 | 9400 | CCOC(=O)N1CC[C@H](N2CCC(N3C(=O)N[C@H]4CCCC[C@@H]43)CC2)C1
120 | 330 | CCOC(=O)N1CCC(N2CCC(N3C(=O)N[C@H]4CCCC[C@@H]43)CC2)CC1
2500 | 4500 | CC(C)OC(=O)N1CCC(N2CCC(N3C(=O)N[C@@H]4CCCC[C@@H]43)CC2)CC1
2600 | > 30000 | O=C(C1CCCC1)N1CCC(N2CCC(N3C(=O)N[C@H]4CCCC[C@@H]43)CC2)CC1
760 | 1300 | CC(C)OC(=O)N1CCC(N2CCC(N3C(=O)N[C@H]4CCCC[C@@H]43)CC2)CC1

The remaining lines, values behind:

Structure (SMILES) | EC50 (cloned human M2 receptor) [nM] | EC50 (cloned human M4 receptor) [nM]
COc1ccccc1C(=O)N1CCC(N2CCC(N3C(=O)N[C@@H]4CCCC[C@H]43)CC2)CC1 | > 30000 | > 30000
O=C1CCCN1CCC(=O)N1CCC(N2CCC(N3C(=O)N[C@@H]4CCCC[C@H]43)CC2)CC1 | 1000 | > 30000
O=C1CCCN1CCC(=O)N1CCC(N2CCC(N3C(=O)N[C@H]4CCCC[C@@H]43)CC2)CC1 | 500 | 5100
CN1C(=O)N(C2CCN(C3CCN(C(=O)C4CC4)CC3)CC2)[C@H]2CCCC[C@@H]21 | > 30000 | > 30000
O=C(C1CC1)N1CCC(N2CCC(N3C(=O)N[C@@H]4CCCC[C@H]43)CC2)CC1 | > 30000 | > 30000
CC(C)OC(=O)N1CCC(N2CCC(N3C(=O)C[C@H]4CCCC[C@@H]43)CC2)CC1 | 1200 | 4200
